In data set [1] the test system is MHV (strain MHV-A59). The conditions noted are these: L929 cells.
The target of data set [2] is 229E-CoV E-protein (Human coronavirus 229E, UniProt P19741). The experiment in a line: Bacterial bio-assay for 229E-CoV E-protein. The conditions noted are these: halo of growth score; E. coli expressing E protein at 37° C.
In data set [3] the target is SARS-CoV E protein (Severe acute respiratory syndrome coronavirus, UniProt P59637). Format: cell-based.
The target in data set [4] is Vpu protein (Human immunodeficiency virus type 1 group M subtype B, UniProt P05919). The conditions noted are these: halo of growth score between zero and six; XL1-blue E. coli with pPL-Vpu, no adenine, 37° C.

The structures appear in SMILES notation. Counter-ions that a name gives are not always drawn. Like-named read-outs stand apart in the source and are kept apart here.

Take `NC(N)=NC(=O)c1ccc(Oc2ccccc2)cc1` [(4-Phenoxybenzoyl)guanidine]: the results for the “Percent reduction in Plaque number/# experiments” value (“Percent reduction” below) in data set [1] (1 uM), in data set [1] (10 uM) and in data set [1] (20 uM) were 32/1%, 65/1% and 73/1%, respectively. In addition, the “229E E protein Inhibition (score)” value in data set [2] amounted to 2.3 score. Further, the “SARS E protein Inhibition (score/# of times tested)” value (shortened to “SARS E protein Inhibition”) in data set [3] is 0.57/2 score. In data set [4], the “Vpu Inhibition (score/# of times tested)” value is 0.81/2 score.
For `C/C(=C\c1ccccc1)C(=O)NC(=N)N` [(a-Methylcinnamoyl)guanidine, (α-Methylcinnamoyl)guanidine], the “Percent reduction” value is reported as 51/2% in data set [1] (1 uM), 75/3% in data set [1] (10 uM) and 81/2% in data set [1] (20 uM). Besides, in data set [2], the “229E E protein Inhibition (score)” value was determined as 1.0 score. Also, in data set [3], the “SARS E protein Inhibition” value is reported as 0.50/1 score. In data set [4], the “Vpu Inhibition (score/# of times tested)” value is on record as 0.6/2 score.
Regarding `CCOc1cccc(/C=C/C(=O)NC(=N)N)c1` [3-ethoxycinnamoylguanidine], the “Percent reduction” value in data set [1] (1 uM) is reported as 58/1%; in data set [1] (10 uM), 89/2%; in data set [1] (20 uM), 100/1%. Moreover, the “229E E protein Inhibition (score)” value in data set [2] was found to be 0.3 score. The “Vpu Inhibition (score/# of times tested)” value in data set [4] is given as 1.9/2 score.
Take `N=C(N)NC(=O)/C=C/c1ccc(F)c(F)c1` [3,4-difluorocinnamoylguanidine]: the results for the “Percent reduction” value in data set [1] (1 uM) and in data set [1] (10 uM) were 50/1% and 91/2%, respectively. Moreover, the “Toxic (noted in place of plaque reduction)” value in data set [1] (20 uM) is listed as “Toxic”. Besides, the “229E E protein Inhibition (score)” value in data set [2] came out at 0.4 score. Besides, the “Vpu Inhibition (score/# of times tested)” value in data set [4] is on record as 2.06/2 score.
As for `Cc1cc(C)c(/C=C/C(=O)NC(=N)N)c(C)c1` [2,4,6-trimethylcinnamoylguanidine], the entries for the “Percent reduction” value in data set [1] (1 uM), in data set [1] (10 uM) and in data set [1] (20 uM) were 27/2%, 61/3% and 91/2%, respectively. Besides, the “229E E protein Inhibition (score)” value in data set [2] stood at 0.9 score. Also, the “Vpu Inhibition (score/# of times tested)” value in data set [4] is on record as 1.4/2 score.
Regarding `Cc1cccc(/C=C/C(=O)NC(=N)N)c1C` [2,3-dimethylcinnamoylguanidine], the “Percent reduction” value was 34/1% in data set [1] (1 uM), 79/2% in data set [1] (10 uM) and 95/1% in data set [1] (20 uM). Also, in data set [2], the “229E E protein Inhibition (score)” value came to 0.5 score. Besides, the “Vpu Inhibition (score/# of times tested)” value in data set [4] is given as 3.1/2 score.
With `COc1nc(N2CCCCCC2)c(Cl)nc1C(=O)N=C(N)N` [3-methoxy-HMA, 3-methoxy-5-(N,N-Hexamethylene)-amiloride], the figures for the “Percent reduction” value in data set [1] (1 uM), in data set [1] (10 uM) and in data set [1] (20 uM) were 35/1%, 31/1% and 15/1%, respectively. The “SARS E protein Inhibition” value in data set [3] was 1.25/1 score. Further, the “Vpu Inhibition (score/# of times tested)” value in data set [4] is recorded as 0.2/4 score.
On to `N=C(N)NC(=O)/C=C/c1ccoc1` [trans-3-Furanacryoylguanidine, trans-3-furanacryoylguanidine], for which the results for the “Percent reduction” value in data set [1] (1 uM), in data set [1] (10 uM) and in data set [1] (20 uM) were 48/1%, 65/1% and 70/1%, respectively. In addition, in data set [3], the “SARS E protein Inhibition” value is recorded as 0.88/2 score. Also, in data set [4], the “Vpu Inhibition (score/# of times tested)” value was 0.38/2 score.
`N/C(=N\C(=O)c1nc(Cl)c(N)nc1N)NCc1ccccc1` [Benzamil hydrochloride, N-Benzyl-N′-(3,5-diamino-6-chloro-pyrzine-2-carbonyl)-guanidine]: the figures for the “Percent reduction” value in data set [1] (1 uM), in data set [1] (10 uM) and in data set [1] (20 uM) were 0/1%, 26/1% and 0/1%, respectively. Moreover, in data set [3], the “SARS E protein Inhibition” value is 1.32/2 score. Besides, in data set [4], the “Vpu Inhibition (score/# of times tested)” value is given as 0.9/3 score.
Take `CC(C)(C)c1ccc(/C=C/C(=O)NC(=N)N)cc1` [4-t-butylcinnamoylguanidine]: in data set [2], the “229E E protein Inhibition (score)” value is given as 4.0 score. Further, the “SARS E protein Inhibition” value in data set [3] is 4.00/1 score. Moreover, the “Vpu Inhibition (score/# of times tested)” value in data set [4] is on record as 0.19/2 score.
With `COc1cc(/C=C/C(=O)NC(=N)N)cc(OC)c1OC` [3,4,5-trimethoxycinnamoylguanidine], the results for the “Percent reduction” value in data set [1] (1 uM), in data set [1] (10 uM) and in data set [1] (20 uM) were 21/1%, 84/1% and 84/1%, respectively. Moreover, the “229E E protein Inhibition (score)” value in data set [2] is reported as 0.1 score. In addition, in data set [3], the “SARS E protein Inhibition” value was 2.25/1 score.
For `N=C(NC(=O)/C=C/c1ccccc1)Nc1ccccc1` [N-(cinnamoyl)-N′phenylguanidine, N-(cinnamoyl)-N′-phenylguanidine], the “Percent reduction” value is 13/1% in data set [1] (1 uM), 88/1% in data set [1] (10 uM) and 83/1% in data set [1] (20 uM). Besides, the “SARS E protein Inhibition” value in data set [3] is given as 1.19/2 score. For the same compound, the “Vpu Inhibition (score/# of times tested)” value in data set [4] was 1.25/3 score.
Turning to `CCN(c1nc(N)c(C(=O)N=C(N)N)nc1Cl)C(C)C` [5-(N-Ethyl-N-isopropyl)amiloride, 5-(N-ethyl-N-isopropyl)amiloride], the “SARS E protein Inhibition” value in data set [3] was 1.07/2 score. Moreover, in data set [4], the “Vpu Inhibition (score/# of times tested)” value is 0.6/3 score.
Take `CC(C)c1cccc(/C=C/C(=O)NC(=N)N)c1.Cl` [3-isopropylcinnamoylguanidine hydrochloride]: the “Percent reduction” value in data set [1] (1 uM) was 32/1%; in data set [1] (10 uM), 99/2%. Moreover, the “229E E protein Inhibition (score)” value in data set [2] was found to be 4.0 score. Besides, in data set [4], the “Vpu Inhibition (score/# of times tested)” value is on record as 2.6/2 score.
Regarding `N=C(N)NC(=O)COc1ccc(Cl)cc1` [[(4-Chlorophenoxy-acetyl]guanidine, (4-Chlorophenoxy-acetyl)guanidine], the results for the “Percent reduction” value in data set [1] (1 uM), in data set [1] (10 uM) and in data set [1] (20 uM) were 0/1%, 16/1% and 19/1%, respectively. In data set [3], the “SARS E protein Inhibition” value is 0.19/2 score. In addition, the “Vpu Inhibition (score/# of times tested)” value in data set [4] is reported as 0.56/2 score.
On to `CC(C)CN(C)c1nc(N)c(C(=O)N=C(N)N)nc1Cl` [5-(N-Methyl-N-isobutyl)amiloride, 5-(N-methyl-N-isobutyl)amiloride], for which the entries for the “Percent reduction” value in data set [1] (1 uM), in data set [1] (10 uM) and in data set [1] (20 uM) were 44/2%, 85/1% and 92/1%, respectively. Besides, in data set [3], the “SARS E protein Inhibition” value is recorded as 3.13/2 score. In addition, in data set [4], the “Vpu Inhibition (score/# of times tested)” value is 0.8/2 score.
For `N=C(N)NC(=O)/C=C/c1ccccc1-c1ccccc1` [2-phenylcinnamoylguanidine], the “Percent reduction” value was 42/1% in data set [1] (1 uM) and 100/1% in data set [1] (10 uM). In addition, the “229E E protein Inhibition (score)” value in data set [2] is 3.0 score. Further, the “Vpu Inhibition (score/# of times tested)” value in data set [4] was 2.1/2 score.
As for `N=C(N)NC(=O)CCc1ccccc1` [(3-phenylpropanoyl)guanidine], the “Percent reduction” value in data set [1] (1 uM) was 0/1%; in data set [1] (10 uM), 03/1%; in data set [1] (20 uM), 51/1%. The “SARS E protein Inhibition” value in data set [3] was 0.73/5 score. In addition, in data set [4], the “Vpu Inhibition (score/# of times tested)” value is listed as 0.2/4 score.
In the case of `NC(N)=NC(=O)c1ccc2cc(C(=O)N=C(N)N)ccc2c1` [N,N′-Bis(amidino)napthalene-2,6-dicarboxamide], the “Percent reduction” value in data set [1] (1 uM) is recorded as 0/1%; in data set [1] (10 uM), 16/1%; in data set [1] (20 uM), 19/1%. The “229E E protein Inhibition (score)” value in data set [2] is 0.3 score. In addition, the “SARS E protein Inhibition” value in data set [3] is on record as 0.25/2 score.
`N=C(N)NC(=O)c1ccc2ccccc2c1Br` [1-bromo-2-napthoylguanidine]: the “Percent reduction” value is recorded as 27/1% in data set [1] (1 uM), 27/2% in data set [1] (10 uM) and 31/1% in data set [1] (20 uM). In addition, the “SARS E protein Inhibition” value in data set [3] was 0.25/1 score. Further, the “Vpu Inhibition (score/# of times tested)” value in data set [4] is given as 0.06/2 score.
For the compound `N/C(=N\C(=O)/C=C/c1ccccc1)NC(=O)c1ccccc1` [N-Benzoyl-N′-cinnamoylguanidine], the “Percent reduction” value in data set [1] (1 uM) is on record as 14/1%; in data set [1] (10 uM) it was 0/1%; in data set [1] (20 uM), 0/1%. For the same compound, the “SARS E protein Inhibition” value in data set [3] is listed as 0.13/2 score. Further, the “Vpu Inhibition (score/# of times tested)” value in data set [4] is 0.06/2 score.
`N=C(N)NC(=O)/C=C/c1ccc2c(c1)OCO2` [3,4-(methylenedioxy)cinnamoylguanidine]: the results for the “Percent reduction” value in data set [1] (1 uM), in data set [1] (10 uM) and in data set [1] (20 uM) were 45/3%, 82/3% and 93/3%, respectively. Moreover, in data set [3], the “SARS E protein Inhibition” value is recorded as 1.25/1 score. In data set [4], the “Vpu Inhibition (score/# of times tested)” value is recorded as 1.88/2 score.
For the compound `N/C(=N\C(=O)c1nc(Cl)c(N)nc1N)Nc1ccccc1` [Phenamil methanesulfonate salt, N-(3,5-Diamino-6-chloro-pyrazine-2-carbonyl)-N′-phenylguanidine], the “SARS E protein Inhibition” value in data set [3] was 0.13/2 score. In data set [4], the “Vpu Inhibition (score/# of times tested)” value is recorded as 0.9/5 score.

The values are drawn from patent US11192863B2, “Antiviral compounds and methods” (Biotron Limited, priority 2003, dated 2021).
